Experimental data published in DBAASP.
In brackets after ≈: the same amount, converted by molar mass.

Assays:
Test in all cases: ≥ marks a high value that may be exact or a test limit, other limits are often not marked, values filed in µg/mL are converted to µM
[1] = test system: Escherichia coli NCTC 10418
[2] = test system: Staphylococcus aureus NCTC 12493
[3] = test system: Candida albicans NCYC 1467
[4] = test system: Enterococcus faecalis NCTC 12697
[5] = test system: Staphylococcus aureus NCTC 10788
[6] = test system: Pseudomonas aeruginosa ATCC 27853
[7] = test system: Klebsiella pneumoniae ATCC 43816
[8] = test system: Citrobacter sp.
[9] = test system: Pseudomonas aeruginosa ATCC 15442
[10] = test system: Klebsiella pneumoniae
[11] = test system: Acinetobacter baumannii ATCC 15308
[12] = test system: Staphylococcus aureus ATCC 25923
[13] = test system: Enterobacter cloacae
[14] = test system: Staphylococcus aureus
[15] = test system: Escherichia coli ATCC 25922
[16] = test system: Streptococcus pneumoniae
[17] = test system: Staphylococcus epidermidis ATCC 12228
[18] = test system: Candida albicans ATCC 24433
[19] = test system: Escherichia coli D31
[20] = test system: Staphylococcus aureus ATCC 27660
[21] = test system: Bacillus subtilis ATCC 6051
[22] = test system: Pseudomonas aeruginosa PAO1
[23] = test system: Acinetobacter baumannii ATCC 19606
[24] = test system: Pseudomonas aeruginosa KCTC 1637
[25] = test system: Salmonella typhimurium KCTC 1926
[26] = test system: Enterococcus faecium VR
[27] = test system: Enterococcus faecalis
[28] = test system: Staphylococcus aureus MR
[29] = test system: Bacillus subtilis KCTC 3068
[30] = test system: Enterococcus faecalis VR
[31] = test system: Enterococcus faecium
[32] = test system: Escherichia coli KCTC 1682
[33] = test system: Staphylococcus aureus KCTC 1621
[34] = test system: Staphylococcus epidermidis KCTC 1917

SMILES: CC(C)C[C@H](NC(=O)[C@H](CCC(N)=O)NC(=O)[C@H](CCC(N)=O)NC(=O)[C@H](C)NC(=O)CNC(=O)[C@H](C)NC(=O)[C@H](CCCCN)NC(=O)CNC(=O)[C@@H](NC(=O)[C@H](CCC(N)=O)NC(=O)[C@H](CCCCN)NC(=O)[C@H](C)NC(=O)[C@H](CC(C)C)NC(=O)[C@H](Cc1ccc(O)cc1)NC(=O)[C@H](CCCCN)NC(=O)[C@H](C)NC(=O)CNC(=O)[C@H](C)NC(=O)[C@H](CCCCN)NC(=O)[C@H](Cc1ccccc1)NC(=O)[C@H](CC(C)C)NC(=O)[C@H](CO)NC(=O)[C@H](CO)NC(=O)[C@H](Cc1ccccc1)NC(=O)CN)C(C)C)C(N)=O [GFSSLFKAGAKYLAKQVGKAGAQQL]
- MIC [1]: 8 µM (≈ 20.5 µg/mL)
- MIC [2]: 16 µM (≈ 41.1 µg/mL)
- MIC [3]: 16 µM (≈ 41.1 µg/mL)
- MIC [4]: 8 µM (≈ 20.5 µg/mL)
- MIC [5]: 8 µM (≈ 20.5 µg/mL)
- MIC [6]: 32 µM (≈ 82.2 µg/mL)
- MIC [7]: ≥ 128 µM

SMILES: CC[C@H](C)[C@H](NC(=O)[C@H](CCSC)NC(=O)[C@H](C)NC(=O)[C@@H]1CCCN1C(=O)[C@@H]1CCCN1C(=O)[C@H](CCCN=C(N)N)NC(=O)[C@H](CCCCN)NC(=O)[C@@H](NC(=O)[C@H](CC(C)C)NC(=O)CNC(=O)CNC(=O)[C@H](CC(C)C)NC(=O)[C@@H](N)Cc1ccccc1)[C@@H](C)CC)C(=O)N[C@H]1CSSC[C@@H](C(=O)O)NC(=O)[C@H](CCCCN)NC(=O)[C@H](CCCCN)NC(=O)[C@H](CCCN=C(N)N)NC(=O)[C@H](C(C)C)NC(=O)[C@H](C)NC1=O [FLGGLIKRPPAMICAVRKKC]
- MIC [8]: ≥ 114 µM
- MIC [9]: ≥ 114 µM
- MIC [10]: > 114 µM
- MIC [11]: ≥ 114 µM
- MIC [12]: > 114 µM
- MIC [13]: ≥ 114 µM
- MIC [14]: > 114 µM
- MIC [15]: > 114 µM
- MIC [16]: ≥ 114 µM

SMILES: CC[C@H](C)[C@H](NC(=O)[C@H](C)NC(=O)[C@H](C)NC(=O)[C@@H]1CCCN1C(=O)[C@@H](NC(=O)[C@H](CC(C)C)NC(=O)[C@H](CCCCN)NC(=O)CNC(=O)[C@H](C)NC(=O)[C@@H](NC(=O)[C@H](CCCCN)NC(=O)[C@H](CC(C)C)NC(=O)[C@@H](NC(=O)[C@H](C)NC(=O)CNC(=O)[C@H](CC(C)C)NC(=O)[C@@H](N)Cc1ccccc1)C(C)C)C(C)C)C(C)C)C(=O)O [FLGAVLKVAGKLVPAAI]
- MIC [1]: ≥ 512 µM
- MIC [2]: ≥ 512 µM
- MIC [3]: ≥ 512 µM
- MIC [4]: ≥ 512 µM
- MIC [5]: ≥ 512 µM
- MIC [7]: ≥ 512 µM

SMILES: CC(C)C[C@H](NC(=O)[C@@H](N)CC(C)C)C(=O)N1CCC[C@H]1C(=O)N[C@@H](Cc1c[nH]c2ccccc12)C(=O)N[C@@H](CCCCN)C(=O)N[C@@H](Cc1c[nH]c2ccccc12)C(=O)N1CCC[C@H]1C(=O)N[C@@H](Cc1c[nH]c2ccccc12)C(=O)N[C@@H](Cc1c[nH]c2ccccc12)C(=O)N[C@@H](CCCCN)C(=O)N[C@@H](Cc1c[nH]c2ccccc12)C(=O)N[C@@H](CCCN=C(N)N)C(=O)N[C@@H](CCCN=C(N)N)C(N)=O [LLPWKWPWWKWRR]
- MIC [8]: ≥ 129 µM
- MIC [9]: 16.1 µM (≈ 31.2 µg/mL)
- MIC [10]: > 129 µM
- MIC [11]: ≥ 129 µM
- MIC [12]: 16.1 µM (≈ 31.2 µg/mL)
- MIC [13]: ≥ 129 µM
- MIC [14]: 16.1 µM (≈ 31.2 µg/mL)
- MIC [15]: 16.1 µM (≈ 31.2 µg/mL)
- MIC [16]: 16.1 µM (≈ 31.2 µg/mL)

SMILES: CC[C@H](C)[C@H](NC(=O)[C@H](CC(C)C)NC(=O)CNC(=O)CNC(=O)[C@H](CC(C)C)NC(=O)[C@@H](N)Cc1ccccc1)C(=O)N[C@@H](CCCCN)C(=O)N[C@@H](Cc1c[nH]c2ccccc12)C(=O)N1CCC[C@H]1C(=O)N[C@@H](Cc1c[nH]c2ccccc12)C(=O)N[C@@H](Cc1c[nH]c2ccccc12)C(=O)N1CCC[C@H]1C(=O)N[C@@H](Cc1c[nH]c2ccccc12)C(=O)N[C@@H](CCCN=C(N)N)C(=O)N[C@@H](CCCN=C(N)N)C(N)=O [FLGGLIKWPWWPWRR]
- MIC [8]: ≥ 125 µM
- MIC [9]: 15.6 µM (≈ 31.2 µg/mL)
- MIC [10]: > 125 µM
- MIC [11]: 31.3 µM (≈ 62.5 µg/mL)
- MIC [12]: 3.91 µM (≈ 7.81 µg/mL)
- MIC [13]: ≥ 125 µM
- MIC [14]: 3.91 µM (≈ 7.81 µg/mL)
- MIC [15]: 3.91 µM (≈ 7.81 µg/mL)
- MIC [16]: 3.91 µM (≈ 7.81 µg/mL)

SMILES: CC[C@H](C)[C@H](NC(=O)CNC(=O)[C@@H](NC(=O)[C@H](C)NC(=O)[C@@H](NC(=O)[C@H](CCCCN)NC(=O)[C@@H]1CCCN1C(=O)[C@@H](NC(=O)[C@H](CCSC)NC(=O)[C@H](CO)NC(=O)[C@H](Cc1ccccc1)NC(=O)[C@@H](N)Cc1ccccc1)[C@@H](C)CC)[C@@H](C)CC)[C@@H](C)O)C(=O)N[C@@H](C)C(=O)N[C@@H](CO)C(=O)N[C@@H](CC(C)C)C(=O)N[C@H](C(=O)N[C@@H](CCCCN)C(=O)N[C@@H](CC(=O)O)C(=O)N[C@@H](CC(C)C)C(N)=O)C(C)C [FFSMIPKIATGIASLVKDL]
- MIC [17]: > 100 µM
- MIC [18]: ≥ 100 µM
- MIC [15]: > 100 µM

SMILES: CC(C)C[C@H](NC(=O)[C@H](C)N)C(=O)N[C@@H](Cc1c[nH]c2ccccc12)C(=O)N[C@@H](CCCN=C(N)N)C(=O)N[C@@H](CCCN=C(N)N)C(=O)N[C@@H](CC(C)C)C(=O)N[C@@H](CC(C)C)C(=O)N[C@@H](CCCN=C(N)N)C(=O)N[C@@H](CCCN=C(N)N)C(=O)N[C@@H](CC(C)C)C(=O)N[C@@H](CC(C)C)C(=O)N[C@@H](CCCN=C(N)N)C(=O)N[C@@H](CO)C(=O)N[C@@H](C)C(=O)N[C@@H](CCCN=C(N)N)C(=O)N[C@@H](CCCN=C(N)N)C(=O)N[C@@H](CC(C)C)C(=O)NCC(N)=O [ALWRRLLRRLLRSARRLG]
- MIC [19]: 1.88 µM (≈ 4.24 µg/mL)
- MIC [20]: 3.75 µM (≈ 8.48 µg/mL)
- MIC [21]: 1.88 µM (≈ 4.24 µg/mL)
- MIC [22]: 7.5 µM (≈ 17 µg/mL)
- MIC [23]: 3.75 µM (≈ 8.48 µg/mL)

SMILES: CC[C@H](C)[C@H](NC(=O)CNC(=O)[C@@H](NC(=O)[C@H](C)NC(=O)[C@@H](NC(=O)[C@H](Cc1cnc[nH]1)NC(=O)[C@@H]1CCCN1C(=O)[C@@H](NC(=O)[C@H](CC(C)C)NC(=O)[C@H](CO)NC(=O)[C@H](CC(C)C)NC(=O)[C@@H](N)Cc1ccccc1)[C@@H](C)CC)[C@@H](C)CC)[C@@H](C)O)C(=O)N[C@@H](C)C(=O)N[C@@H](C)C(=O)N[C@@H](CC(C)C)C(=O)N[C@@H](C)C(=O)N[C@@H](CCCCN)C(=O)N[C@@H](Cc1cnc[nH]1)C(=O)N[C@@H](CC(C)C)C(N)=O [FLSLIPHIATGIAALAKHL]
- MIC [17]: 12.5 µM (≈ 24.8 µg/mL)
- MIC [18]: ≥ 100 µM
- MIC [15]: 50 µM (≈ 99.3 µg/mL)

SMILES: CC(C)C[C@H](NC(=O)[C@H](CS)NC(=O)[C@H](Cc1cnc[nH]1)NC(=O)[C@H](C)NC(=O)[C@H](C)N)C(=O)N[C@@H](C)C(=O)N[C@@H](CCCCN)C(=O)N[C@@H](CCCN=C(N)N)C(=O)N[C@@H](CCCCN)C(=O)N[C@@H](CCCCN)C(N)=O [AAHCLAKRKK]
- MIC [24]: 30 µM
- MIC [25]: 30 µM
- MIC [26]: 30 µM
- MIC [27]: 30 µM
- MIC [28]: 30 µM
- MIC [29]: 30 µM
- MIC [30]: 30 µM
- MIC [31]: 30 µM
- MIC [32]: 30 µM
- MIC [33]: 30 µM
- MIC [34]: 30 µM
